The values below come from article PMC5371851 (Toxins, 2017).

Data set [1] deals with human gastric epithelial (GES-1) cells.
For a further data set, the system named is porcine IPEC-1. To be noted: pig intestine cell (IPEC-1); cited from earlier work.

Consider `CC(=O)O[C@@H]1C[C@]2(C)[C@@]3(CO)[C@H](O)C(=O)C(C)=C[C@H]3O[C@H]1[C@@]21CO1` [3-ADON, 3-acetyldeoxynivalenol], for which the “relative potency in reducing cell viability (fold less)” value in data set [1] is reported as “ten-fold”. The “effect on cell viability” value in data set [1] (human) is listed as “neither D3G nor 3-ADON decreased any cell viability”. Further, the “toxicity relative to DON” value in the data set on porcine IPEC-1 is “less toxicity than DON”.

On to `CC1=C[C@H]2O[C@@H]3[C@H](O)C[C@](C)([C@@]2(CO)[C@H](O)C1=O)[C@]31CO1` [DON, deoxynivalenol], for which, in data set [1], the “Dm (median-effect dose, IC50 value)” value stood at 2.99 ppm; the “EC30 (effective concentration of 30% inhibiting cell viability rate)” value was determined as 0.75; the “EC70 (effective concentration of 70% inhibiting cell viability rate)” value was found to be 11.99; the “m (slope of median-effect curves)” value was 0.61.

As for `CC(=O)O[C@@H]1[C@@H](O)[C@H]2O[C@@H]3C=C(C)C(=O)[C@@H](O)[C@]3(CO)[C@]1(C)[C@]21CO1` [FX, Fusarenon-X], in data set [1], the “Dm (median-effect dose, IC50 value)” value was determined as 0.85 ppm; the “EC30 (effective concentration of 30% inhibiting cell viability rate)” value is reported as 0.15; the “EC70 (effective concentration of 70% inhibiting cell viability rate)” value amounted to 4.97; the “m (slope of median-effect curves)” value worked out at 0.48.

For the molecule `CC(=O)OC[C@]12[C@H](O)C(=O)C(C)=C[C@H]1O[C@@H]1[C@H](O)C[C@@]2(C)[C@]12CO2` [15-ADON, 15-acetyldeoxynivalenol], in data set [1], the “Dm (median-effect dose, IC50 value)” value was found to be 4.77 ppm; the “EC30 (effective concentration of 30% inhibiting cell viability rate)” value stood at 1.13; the “EC70 (effective concentration of 70% inhibiting cell viability rate)” value turned out to be 20.05; the “m (slope of median-effect curves)” value is 0.59.

For the molecule `CC1=C[C@H]2O[C@@H]3[C@H](O)[C@@H](O)[C@](C)([C@@]2(CO)[C@H](O)C1=O)[C@]31CO1` [NIV, Nivalenol], in data set [1], the “Dm (median-effect dose, IC50 value)” value turned out to be 0.58 ppm; the “EC30 (effective concentration of 30% inhibiting cell viability rate)” value worked out at 0.08; the “EC70 (effective concentration of 70% inhibiting cell viability rate)” value is given as 4.36; the “m (slope of median-effect curves)” value was 0.42.

Take `CC1=C[C@H]2O[C@@H]3[C@H](O[C@@H]4O[C@H](CO)[C@@H](O)[C@H](O)[C@H]4O)C[C@](C)([C@@]2(CO)[C@H](O)C1=O)[C@]31CO1` [D3G, deoxynivalenol-3-glucoside]: the “toxicity to GES-1 cells” value in data set [1] is listed as “no toxicity”.
